Source: the NIST ThermoML archive (doi:10.1021/je900733j)

Legend:
[1] = xn = mol fraction of the nth substance listed; conditions: 101 kPa, Liquid
[2] = 101 kPa, Liquid

CCCCn1cc[n+](C)c1.[Cl-] [1-butyl-3-methylimidazolium chloride] + CC#N
mass density [kg/m3], [1]
Conditions | x1 = 0.0303 | x1 = 0.0797 | x1 = 0.1308 | x1 = 0.1806 | x1 = 0.235 | x1 = 0.2914 | x1 = 0.3717 | x1 = 0.439
293.15 K | 815.47 | 859.07 | 894.46 | 922.76 | 948.31 | 970.09 | 995.09 | 1012.49
298.15 K | 810.4 | 854.38 | 890.07 | 918.62 | 944.36 | 966.32 | 991.52 | 1009.08
303.15 K | 805.29 | 849.67 | 885.68 | 914.46 | 940.39 | 962.55 | 987.95 | 1005.66
308.15 K | 800.18 | 844.95 | 881.27 | 910.3 | 936.47 | 958.78 | 984.38 | 1002.25
313.15 K | 795.05 | 840.21 | 876.86 | 906.14 | 932.51 | 955.02 | 980.83 | 998.86
318.15 K | 789.88 | 835.48 | 872.45 | 901.98 | 928.57 | 951.26 | 977.28 | 995.46

CCCCn1cc[n+](C)c1.[Cl-] [1-butyl-3-methylimidazolium chloride] + CN(C)C=O
mass density [kg/m3], [1]
Conditions | x1 = 0.0332 | x1 = 0.0835 | x1 = 0.1303 | x1 = 0.1822 | x1 = 0.2289 | x1 = 0.3069 | x1 = 0.3879 | x1 = 0.4488
293.15 K | 961.92 | 978 | 990.54 | 1002.71 | 1012.04 | 1025.51 | 1037.1 | 1044.53
298.15 K | 957.33 | 973.63 | 986.33 | 998.67 | 1008.12 | 1021.78 | 1033.54 | 1041.06
303.15 K | 952.73 | 969.25 | 982.13 | 994.62 | 1004.21 | 1018.05 | 1029.98 | 1037.61
308.15 K | 948.12 | 964.87 | 977.91 | 990.58 | 1000.3 | 1014.34 | 1026.42 | 1034.18
313.15 K | 943.52 | 960.48 | 973.71 | 986.54 | 996.4 | 1010.63 | 1022.89 | 1030.77
318.15 K | 938.89 | 956.09 | 969.5 | 982.51 | 992.5 | 1006.94 | 1019.36 | 1027.36

CCCCn1cc[n+](C)c1.[Cl-] [1-butyl-3-methylimidazolium chloride] + CO
mass density [kg/m3], [1]
Conditions | x1 = 0.0101 | x1 = 0.0506 | x1 = 0.1 | x1 = 0.1665 | x1 = 0.1951 | x1 = 0.2398 | x1 = 0.2991 | x1 = 0.3771 | x1 = 0.482
293.15 K | 805.87 | 852.64 | 894.1 | 935.48 | 949.82 | 968.61 | 989.02 | 1010.45 | 1031.45
298.15 K | 801.3 | 848.46 | 890.18 | 931.83 | 946.25 | 965.16 | 985.68 | 1007.23 | 1028.33
303.15 K | 796.71 | 844.24 | 886.26 | 928.17 | 942.69 | 961.71 | 982.33 | 1004.01 | 1025.22
308.15 K | 792.11 | 840.01 | 882.35 | 924.53 | 939.14 | 958.26 | 979.01 | 1000.8 | 1022.12
313.15 K | 787.49 | 835.76 | 878.44 | 920.9 | 935.6 | 954.83 | 975.69 | 997.6 | 1019.03
318.15 K | 782.83 | 831.56 | 874.52 | 917.27 | 932.06 | 951.4 | 972.38 | 994.41 | 1015.96

CCCCn1cc[n+](C)c1.[Cl-] [1-butyl-3-methylimidazolium chloride] + O
mass density [kg/m3], [1]
Conditions | x1 = 0.0121 | x1 = 0.0381 | x1 = 0.0819 | x1 = 0.1109 | x1 = 0.1399 | x1 = 0.2489 | x1 = 0.2977 | x1 = 0.4083
293.15 K | 1007.06 | 1024.73 | 1046.21 | 1055.73 | 1062.54 | 1076.98 | 1080.14 | 1084.32
298.15 K | 1005.53 | 1022.46 | 1043.25 | 1052.62 | 1059.39 | 1073.95 | 1077.15 | 1081.43
303.15 K | 1003.8 | 1020.07 | 1040.24 | 1049.46 | 1056.2 | 1070.89 | 1074.16 | 1078.53
308.15 K | 1001.89 | 1017.57 | 1037.17 | 1046.28 | 1052.99 | 1067.82 | 1071.15 | 1075.63
313.15 K | 999.81 | 1014.95 | 1034.06 | 1043.06 | 1049.76 | 1064.72 | 1068.14 | 1072.73
318.15 K | 997.57 | 1012.24 | 1030.89 | 1039.81 | 1046.48 | 1061.63 | 1065.09 | 1069.82

CC#N [acetonitrile]
[2]
Conditions | mass density [kg/m3]
293.15 K | 782.04
298.15 K | 776.64
303.15 K | 771.21
308.15 K | 765.75
313.15 K | 760.25
318.15 K | 754.73

CC#N [acetonitrile] + CCCCn1cc[n+](C)c1.[Cl-]
[1], x2 = 0
Conditions | mass density [kg/m3]
293.15 K | 782.04
298.15 K | 776.64
303.15 K | 771.21
308.15 K | 765.75
313.15 K | 760.25
318.15 K | 754.73

CN(C)C=O [dimethylformamide]
[2]
Conditions | mass density [kg/m3]
293.15 K | 948.63
298.15 K | 943.86
303.15 K | 939.08
308.15 K | 934.29
313.15 K | 929.48
318.15 K | 924.68

CN(C)C=O [dimethylformamide] + CCCCn1cc[n+](C)c1.[Cl-]
[1], x2 = 0
Conditions | mass density [kg/m3]
293.15 K | 948.63
298.15 K | 943.86
303.15 K | 939.08
308.15 K | 934.29
313.15 K | 929.48
318.15 K | 924.68

CO [methanol]
[2]
Conditions | mass density [kg/m3]
293.15 K | 791.3
298.15 K | 786.58
303.15 K | 781.86
308.15 K | 777.11
313.15 K | 772.33
318.15 K | 767.52

CO [methanol] + CCCCn1cc[n+](C)c1.[Cl-]
[1], x2 = 0
Conditions | mass density [kg/m3]
293.15 K | 791.3
298.15 K | 786.58
303.15 K | 781.86
308.15 K | 777.11
313.15 K | 772.33
318.15 K | 767.52
